Test systems include PC-3; KM12; K562; SK-MEL-2; SNB-75; NCI-H522; HOP-62; T47D; ACHN; OVCAR-5; COLO 205; LOX IMVI; DMS-114; HCC 2998; UO-31; SR; DU-145; NCI-H226; OVCAR-3; A498.
Common to all, as to test: NCI tumour cell line growth inhibition, 48 h

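These data come from cells grown in 96-well plates and exposed to compound for 48 hours at five concentrations. GI50 marks 50% less growth.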 The source made the active and inactive calls. Cut-off read from the data, not from the text of the source: active = GI50 up to about 1.1 µM and inactive = higher.

As for `CC(=O)OCC1C(=O)OCC1C(=O)N1Cc2cc3ccccc3nc2C1` (stereo not given), the GI50 was 7.45 µM (inactive) in the assay on PC-3; 16.2 µM (inactive) with KM12; 0.676 µM (active) in the assay with K562; 8.15 µM (inactive) in the assay with SK-MEL-2; 4.58 µM (inactive) in the assay on SNB-75; 0.714 µM (active) in the assay on NCI-H522. Further, the GI50 was 16.6 µM (inactive) with HOP-62; 1.15 µM (inactive) in the assay with T47D; 1.36 µM (inactive) with ACHN; 5.69 µM (inactive) in the assay on OVCAR-5; 0.653 µM (active) in the assay with COLO 205; 2.45 µM (inactive) in the assay on LOX IMVI. In addition, the GI50 in the assay on DMS-114 is 13.6 µM (inactive); in the assay on HCC 2998 it was 10.4 µM (inactive); with UO-31, 3.95 µM (inactive); in the assay on SR, 1.49 µM (inactive); in the assay with DU-145, 4.5 µM (inactive); in the assay with NCI-H226 it was 5.96 µM (inactive). Moreover, the GI50 is 1.57 µM (inactive) with OVCAR-3 and 5.08 µM (inactive) in the assay with A498.
`COc1cc(/C=C/c2ccc(OC)c(OC)c2OC)cc(OC)c1OC`: the GI50 with KM12 was 22 µM (inactive); in the assay with K562 it was 23.1 µM (inactive); in the assay on SK-MEL-2, 16.9 µM (inactive); with SNB-75 it was 10.8 µM (inactive); in the assay on NCI-H522, 15.3 µM (inactive); with HOP-62 it was 15.6 µM (inactive). Also, the GI50 was 25.1 µM (inactive) in the assay with ACHN; 15.8 µM (inactive) with OVCAR-5; 17.3 µM (inactive) in the assay on COLO 205; 16.1 µM (inactive) in the assay with LOX IMVI; 18.2 µM (inactive) in the assay on DMS-114; 13.2 µM (inactive) in the assay on HCC 2998. Also, the GI50 in the assay with UO-31 is 14.1 µM (inactive); in the assay with SR it was 12.2 µM (inactive); in the assay with NCI-H226, 17.6 µM (inactive); in the assay on OVCAR-3 it was 16 µM (inactive); in the assay with A498, 22 µM (inactive).
In the case of `Cc1ccc([S+]([O-])C(C)C(Cl)c2ccccc2)cc1` (stereo not given), the GI50 is 45.8 µM (inactive) in the assay with K562; > 100 µM (inactive) with SK-MEL-2; 48.6 µM (inactive) in the assay on SNB-75; 28.9 µM (inactive) in the assay on NCI-H522; > 100 µM (inactive) in the assay with HOP-62; > 100 µM (inactive) in the assay with ACHN. Further, the GI50 in the assay with OVCAR-5 is > 100 µM (inactive); with COLO 205, 30.7 µM (inactive); in the assay on LOX IMVI, > 100 µM (inactive); in the assay with DMS-114, 28.2 µM (inactive); in the assay with HCC 2998, > 100 µM (inactive); in the assay on UO-31, > 100 µM (inactive). The GI50 in the assay with SR was 99.3 µM (inactive); in the assay with NCI-H226, > 100 µM (inactive); in the assay with OVCAR-3 it was 53.7 µM (inactive); with A498 it was > 100 µM (inactive).
Consider `COc1ccc(C2CC(c3cc(C)ccc3O)=NC(N)=N2)cc1` (stereo not given), for which the GI50 with KM12, in the assay on K562, in the assay with SNB-75, in the assay with NCI-H522, with HOP-62 and in the assay on ACHN was > 100 µM (inactive) throughout. The GI50 with OVCAR-5, with COLO 205, in the assay with LOX IMVI, in the assay with DMS-114, with HCC 2998 and with UO-31 was > 100 µM (inactive) in each case. The GI50 with SR, in the assay with NCI-H226, in the assay with OVCAR-3 and in the assay on A498 was > 100 µM (inactive) each time.
As to `CCCCCCCCCCCCCC(=O)OC(/C=C/C(C)C)C(O)C(O)C(OC)C(=O)NC1CCCCNC1=O` (stereo not given), the GI50 in the assay on PC-3 was > 10 µM (inactive); in the assay on KM12 it was 0.448 µM (active); in the assay on K562, 0.627 µM (active); in the assay on SK-MEL-2 it was 2.65 µM (inactive); in the assay on SNB-75 it was 2.05 µM (inactive); with NCI-H522 it was 0.836 µM (active). Besides, the GI50 in the assay with HOP-62 is 1.61 µM (inactive); in the assay on T47D it was > 10 µM (inactive); in the assay with ACHN it was 0.689 µM (active); in the assay with OVCAR-5, 3.65 µM (inactive); with COLO 205, 0.299 µM (active); in the assay with LOX IMVI it was 0.408 µM (active). Also, the GI50 with DMS-114 is 0.615 µM (active); with HCC 2998, 0.574 µM (active); in the assay with UO-31, 0.989 µM (active); in the assay with SR, 0.097 µM (active); in the assay on DU-145, > 10 µM (inactive); in the assay with NCI-H226 it was 2.39 µM (inactive). Also, the values for the GI50 with OVCAR-3 and in the assay on A498 were 1.81 µM (inactive) and 5.21 µM (inactive), respectively.
Regarding `CC(C)C/C(CC(=O)CCC(=O)Nc1ccccc1[N+](=O)[O-])=N\NC(=O)c1cc2ccccc2cc1O`, the GI50 in the assay on KM12 is 67.6 µM (inactive); in the assay on K562, 25.9 µM (inactive); in the assay with SNB-75 it was 37.7 µM (inactive); in the assay with NCI-H522, 28.4 µM (inactive); with HOP-62, 57.3 µM (inactive); in the assay with ACHN, 34.1 µM (inactive). The GI50 in the assay on OVCAR-5 was 31 µM (inactive); with COLO 205, 28.6 µM (inactive); with LOX IMVI, 27 µM (inactive); in the assay with DMS-114, 36.1 µM (inactive); in the assay on HCC 2998, 36.6 µM (inactive); with UO-31, 37 µM (inactive). Besides, the GI50 in the assay with SR is 30.2 µM (inactive); in the assay on NCI-H226, 19.3 µM (inactive); in the assay with OVCAR-3, 26.7 µM (inactive); with A498, 0.0357 µM (active).
Take `C/C=C(\CCOS(=O)(=O)c1ccc(C)cc1)[Si](C)(C)C`: the GI50 with KM12, in the assay on K562, in the assay on SK-MEL-2, in the assay with SNB-75, with NCI-H522 and in the assay with ACHN was > 100 µM (inactive) each time. For the same molecule, the GI50 in the assay with OVCAR-5, in the assay with COLO 205, with LOX IMVI, in the assay on DMS-114, in the assay with HCC 2998 and with UO-31 was > 100 µM (inactive) each time. Moreover, the GI50 in the assay with SR, in the assay with OVCAR-3 and in the assay on A498 was > 100 µM (inactive) each time.

The values above are taken from ChEMBL document CHEMBL1201862, “PubChem BioAssay data set” (2004).
